{"source": "paper PMC3124071", "about": "(Journal of medicinal chemistry, 2011)", "key": {"[1]": {"target": "T1, human uric acid transporter 1 (hURAT1; SLC22A12) (Homo sapiens, UniProt Q96S37)", "T1 sequence (Q96S37 1-553)": "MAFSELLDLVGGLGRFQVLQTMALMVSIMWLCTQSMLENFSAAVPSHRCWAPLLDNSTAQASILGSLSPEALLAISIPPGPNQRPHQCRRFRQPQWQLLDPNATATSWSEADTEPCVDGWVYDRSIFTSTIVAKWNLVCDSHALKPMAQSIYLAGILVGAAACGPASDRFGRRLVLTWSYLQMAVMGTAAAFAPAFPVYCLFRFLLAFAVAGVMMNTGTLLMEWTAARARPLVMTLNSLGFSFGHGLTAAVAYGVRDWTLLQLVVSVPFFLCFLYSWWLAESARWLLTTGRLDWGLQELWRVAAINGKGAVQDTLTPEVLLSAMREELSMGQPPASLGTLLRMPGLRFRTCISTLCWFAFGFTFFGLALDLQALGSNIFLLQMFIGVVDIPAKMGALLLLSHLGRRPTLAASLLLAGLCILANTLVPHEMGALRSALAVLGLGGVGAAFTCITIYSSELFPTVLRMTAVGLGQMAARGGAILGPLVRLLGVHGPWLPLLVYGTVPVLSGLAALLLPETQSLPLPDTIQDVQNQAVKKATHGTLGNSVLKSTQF", "test": "14C-uric acid uptake inhibition in Xenopus oocytes expressing hURAT1", "assay_type": "cell-based", "conditions": "for 14C-urate transport inhibition (in words): test compound at 50 μM"}, "[2]": {"conditions": "urate-lowering therapy ref 6; cited from earlier work"}, "[3]": {"conditions": "oral; 7 (100 mg/kg) versus 4 (300 mg/day) or 5 (1000 mg/day) ref 22; cited from earlier work"}}}
{"compound": "CCc1oc2c(OC)cccc2c1C(=O)c1ccc(OC)cc1", "note": "[Compound 19, (2-ethyl-7-methoxybenzofuran-3-yl)(4-methoxyphenyl)methanone]", "values": [{"measurement": "14C-urate transport inhibition (in words)", "setting": "[1]", "value": "weak inhibition"}]}
{"compound": "CCc1oc2ccccc2c1C(=O)c1ccc(OC)cc1", "note": "[Compound 12, (2-ethylbenzofuran-3-yl)(4-methoxyphenyl)methanone]", "values": [{"measurement": "IC50", "setting": "[1]", "value": "> 50", "unit": "µM"}, {"measurement": "14C-urate transport inhibition (in words)", "setting": "[1]", "value": "weak-to-no"}]}
{"compound": "Oc1ncnc2[nH]ncc12", "note": "[Compound 3, allopurinol]", "values": [{"measurement": "patients able to meet treatment goals", "setting": "[2]", "value": "about 40%"}]}
{"compound": "CCc1oc2ccc(OC)cc2c1C(=O)c1ccc(OC)cc1", "note": "[Compound 14, (2-ethyl-5-methoxybenzofuran-3-yl)(4-methoxyphenyl)methanone]", "values": [{"measurement": "14C-urate transport inhibition (in words)", "setting": "[1]", "value": "weak inhibition"}]}
{"compound": "CCc1oc2ccccc2c1C(=O)c1cc(Br)c(O)c(Br)c1", "note": "[Compound 7, (3,5-dibromo-4-hydroxyphenyl)(2-ethylbenzofuran-3-yl)methanone]", "values": [{"measurement": "physiological effect (lowers urate level) compared with 4 and 5", "setting": "[3]", "value": "greater physiological effect"}]}
{"compound": "CCc1oc2cc(OC)c(Br)cc2c1C(=O)c1cc(Br)c(O)c(Br)c1", "note": "[Compound 46, (5-bromo-2-ethyl-6-methoxybenzofuran-3-yl)(3,5-dibromo-4-hydroxyphenyl)methanone]", "values": [{"measurement": "IC50", "setting": "[1]", "value": "1.65 ± 0.12", "unit": "µM"}, {"measurement": "inhibition at 50 µM", "setting": "[1]; read-out: % Inhibition @ 50 μM", "value": "98.1 ± 0.2", "unit": "%"}]}
